Experiment [1] deals with NCI-H1975. As to the kind of experiment: Antiproliferative activity against human NCI-H1975 cells assessed as reduction in cell viability incubated for 72 hrs by SRB assay. Conditions: NCI-H1975, 72 h. Type of experiment: functional, cell-based. In general terms: In SRB staining, fixed cells bind dye roughly in proportion to their protein.
In experiment [2] the test system is NCI-H1975. As to the kind of experiment: Antitumor activity against human NCI-H1975 cells xenografted in athymic nude BALB/c mouse assessed as tumor size at 1 mg/kg, ip administered for 4 weeks (reference value: 546.2 +/- 95.2 cu.mm). Type of experiment: functional.
Experiment [3] relates to NCI-H1975. The experiment in a line: Antitumor activity against human NCI-H1975 cells xenografted in athymic nude BALB/c mouse assessed as tumor size at 4 mg/kg, ip administered for 4 weeks (reference value: 546.2 +/- 95.2 cu.mm). In kind it is functional. (A xenograft is tissue or cells of one species grown in another, often human tumour cells in immunodeficient mice.)

For experiment [4], the system named is Hs68. The experiment in a line: Cytotoxicity against human HS68 cells assessed as reduction in cell viability incubated for 72 hrs by SRB assay. Type of experiment: cell-based. Conditions: Hs68, 72 h.
Experiment [5] concerns NCI-H1975. As to the kind of experiment: Potency index, ratio of IC50 of AS4583 to IC50 of compound for Antiproliferative activity against human NCI-H1975 cells assessed as reduction in cell viability incubated for 72 hrs by SRB assay. In kind it is functional.

Consider 12 compounds from ChEMBL document CHEMBL4602694, “Suppression of Drug-Resistant Non-Small-Cell Lung Cancer with Inhibitors Targeting Minichromosomal Maintenance Protein” (J Med Chem, 2020).

Usually IC50 stands for the concentration at which inhibition is half-maximal.

Take `CCc1oc2c(c1C(=O)NCCCn1ccnc1)C(=O)c1ccccc1C2=O`: the IC50 in experiment [1] was 0.288 µM. In the case of `Cc1oc2c(c1C(=O)NCCCn1ccnc1)C(=O)c1ccc(F)cc1C2=O`, the Activity is 128.2 mm3 in experiment [2] and 109.5 mm3 in experiment [3]. For the same compound, the IC50 in experiment [1] was found to be 0.017 µM. As to `Cc1oc2c(c1C(=O)NCCCCc1ccccc1)C(=O)c1ccccc1C2=O`, the IC50 in experiment [1] is more than 10 µM.

For `Cc1oc2c(c1C(=O)NCCCN1CCCC1)C(=O)c1ccccc1C2=O`, the values for the IC50 in experiment [1] and in experiment [4] were 0.024 µM and 0.077 µM, respectively. Turning to `Cc1oc2c(c1C(=O)NCCCN1CCOCC1)C(=O)c1ccccc1C2=O`, in experiment [1], the IC50 was determined as 0.08 µM.

Turning to `Cc1oc2c(c1C(=O)NCCCCn1ccnc1)C(=O)c1ccccc1C2=O`, the IC50 in experiment [1] amounted to 0.25 µM. Turning to `Cc1[nH]c2c(c1C(=O)NCCCn1ccnc1)C(=O)c1ccccc1C2=O`, the “Ratio IC50” value in experiment [5] was found to be 100. In addition, the IC50 in experiment [1] worked out at 8.73 µM. As for `Cc1oc2c(c1C(=O)NCCn1ccnc1)C(=O)c1ccccc1C2=O`, in experiment [1], the IC50 was determined as 0.28 µM. Same read-out and setting: as for `O=C1c2ccccc2C(=O)c2c1oc(-c1ccccc1)c2C(=O)NCCCn1ccnc1`, the figure is 0.826 µM; as for `Cc1oc2ccccc2c1C(=O)NCCCn1ccnc1`, more than 10 µM; as for `CC(C)c1oc2c(c1C(=O)NCCCn1ccnc1)C(=O)c1ccccc1C2=O`, 0.26 µM.

For `Cc1oc2c(c1C(=O)NCCCn1cccc1)C(=O)c1ccccc1C2=O`, in experiment [1], the IC50 is 0.918 µM.
